Test results from patent publication US10273227B2, “C5-anilinoquinazoline compounds and their use in treating cancer” (AstraZeneca AB, priority 2017, dated 2019).

Assays:
Assay type in all cases: cell-based
[1] = biological target: T1, Ba/F3-T670I (KIT exon11 deletion (557-558) and secondary mutation T670I) (Homo sapiens, UniProt P10721, DEL557-558/T670I); assay: MTS viability assay, Ba/F3 expressing KIT exon11 deletion (557-558) and T670I; settings: 72 h incubation, top concentration 10 uM
T1 construct: expressed in transfected cells; host or cells: Ba/F3 cells, lentiviral transduction (pLVX-IRES Puro)
Protocol: (§1) Exponentially grown Ba/F3 cells (1.5×10^6 cells in 2 ml medium) were infected with 2 ml of viral suspension in a 6-well plate in the presence of mIL-3 (10 ng/ml) and polybrene (4 μg/ml) (Sigma Aldrich, St. Louis, Mo.) and incubated for 24 h. After 24 h, the cells were centrifuged and the viral supernatant was discarded. The cells were then re-suspended in fresh medium and allowed to recover for another day. The following day, the cells were seeded in complete medium without murine IL-3. After a week or two, when cells started proliferating, a selection was carried out by gradually increasing the puromycin concentration to 0.5 ug/ml. Once the cells were growing exponentially in puromycin, batches of cells were frozen down for banking.
(§2) The impact of KIT inhibitors on the viability of Ba/F3 expressing KIT mutations was determined using an MTS assay, which is a colorimetric sensitive quantification of viable cells in proliferation and cytotoxicity assay. In the MTS assay […] in the presence of phenazine methosulfate (PMS) was used. The mitochondrial reductase forms a formazan which absorbs at 490 nm. Cells in exponential growth phase were added to 384-well plates containing pre-dispensed compounds (top concentration 10 uM, 10-point curve). The cells were incubated for 72 h at 37° C. and 5% CO2. After 72 h, MTS reagent was added to the plates and incubated an additional 2 h at 37° C. before measuring the absorbance at 490 nm on a Tecan microplate reader using Magellan Software (Tecan Trading AG, Switzerland).
(§3) The absorbances were normalized as follows: (Read-Day0 control)/(Day3 control−Day0 control)*100. The GI50 values were generated using Genedata Screener software (Genedata Lexington, Mass.). A non-linear regression with constraints for top and bottom between 100 and −100 and no constraint on the Hill coefficient was used to generate GI50 values. The GI50 values reported below are the calculated mean result of at least 3 biological replicates across all the cell lines tested.

[2] = biological target: T2, Ba/F3-V654A (KIT exon11 deletion (557-558) and secondary mutation V654A) (Homo sapiens, UniProt P10721, DEL557-558/V654A); assay: MTS viability assay, Ba/F3 expressing KIT exon11 deletion (557-558) and V654A; settings: 72 h incubation, top concentration 10 uM
T2 construct: expressed in transfected cells; host or cells: Ba/F3 cells, lentiviral transduction (pLVX-IRES Puro)
Protocol: as §1, §2, §3

[3] = system: TEL-KDR (KDR (K790-V1356) fused to the C-terminus of Tel); assay: MTS viability assay, Ba/F3 expressing Tel-KDR; settings: 72 h incubation, top concentration 10 uM
Protocol: Tel-KDR myc was cloned into pBCS2004, a retroviral vector, wherein KDR (K790-V1356) is fused to the C-terminus of Tel. Retroviral particles were generated in HEK293T cells. The Tel-KDR plasmid was co-transfected with helper viruses (gag-Pol and VSV-G) into HEK293T cells using calcium phosphate and the virus was harvested 72 h after transfection.
as §1, §2, §3

Ba/F3-Parental = assay: MTS viability assay, Ba/F3 parental cells; settings: Mus musculus, BaF3, 72 h incubation, top concentration 10 uM
Protocol: as §1, §2, §3

[4] = biological target: T3, Ba/F3-D816H (KIT exon11 deletion (557-558) and secondary mutation D816H) (Homo sapiens, UniProt P10721, D816H/DEL557-558); assay: MTS viability assay, Ba/F3 expressing KIT exon11 deletion (557-558) and D816H; settings: 72 h incubation, top concentration 10 uM
T3 construct: expressed in transfected cells; host or cells: Ba/F3 cells, lentiviral transduction (pLVX-IRES Puro)
Protocol: as §1, §2, §3

T2 sequence (P10721 with tags, fused parts or gaps DEL557-558/V654A): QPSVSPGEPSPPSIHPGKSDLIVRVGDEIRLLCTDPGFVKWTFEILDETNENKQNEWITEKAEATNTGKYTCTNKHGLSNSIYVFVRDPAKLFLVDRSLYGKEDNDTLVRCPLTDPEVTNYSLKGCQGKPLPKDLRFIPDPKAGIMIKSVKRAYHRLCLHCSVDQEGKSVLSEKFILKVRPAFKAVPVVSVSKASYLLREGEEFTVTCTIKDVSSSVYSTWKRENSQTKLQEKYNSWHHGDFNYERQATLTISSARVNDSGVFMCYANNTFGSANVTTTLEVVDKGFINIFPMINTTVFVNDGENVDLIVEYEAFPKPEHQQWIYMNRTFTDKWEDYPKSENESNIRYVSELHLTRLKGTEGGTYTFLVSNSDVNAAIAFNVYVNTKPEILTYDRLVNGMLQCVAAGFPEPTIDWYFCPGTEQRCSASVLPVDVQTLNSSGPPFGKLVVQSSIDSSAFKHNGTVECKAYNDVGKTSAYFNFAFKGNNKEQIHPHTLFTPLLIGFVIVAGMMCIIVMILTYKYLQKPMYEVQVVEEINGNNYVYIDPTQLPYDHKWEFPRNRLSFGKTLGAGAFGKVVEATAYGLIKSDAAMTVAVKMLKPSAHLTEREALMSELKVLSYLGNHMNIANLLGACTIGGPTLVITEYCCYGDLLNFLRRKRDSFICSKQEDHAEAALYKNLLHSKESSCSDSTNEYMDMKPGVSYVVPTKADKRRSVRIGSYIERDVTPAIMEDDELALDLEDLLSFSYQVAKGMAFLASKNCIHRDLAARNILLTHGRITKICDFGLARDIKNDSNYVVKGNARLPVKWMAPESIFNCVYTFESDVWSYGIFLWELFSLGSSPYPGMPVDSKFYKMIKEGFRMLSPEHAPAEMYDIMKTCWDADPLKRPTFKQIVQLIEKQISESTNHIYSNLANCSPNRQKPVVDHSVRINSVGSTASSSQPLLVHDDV
T1 sequence (P10721 with tags, fused parts or gaps DEL557-558/T670I): as the sequence (P10721 with tags, fused parts or gaps DEL557-558/V654A) above, with A627V, T643I counted along it
T3 sequence (P10721 with tags, fused parts or gaps DEL557-558/D816H): as the sequence (P10721 with tags, fused parts or gaps DEL557-558/V654A) above, with A627V, D789H counted along it

SMILES	Ba/F3-T670I GI50 [1] [nM]	Ba/F3-V654A GI50 [2] [nM]	GI50 [3] [nM]	GI50 (Ba/F3-Parental) [nM]	Ba/F3-D816H GI50 [4] [nM]
COc1cc2ncnc(Nc3ccc(NC(=O)Cn4cc(C(C)C)nn4)cc3)c2c(F)c1OC [Example 2, N-{4-[(5-fluoro-6,7-dimethoxyquinazolin-4-yl)amino]phenyl}-2-[4-(propan-2-yl)-1H-1,2,3-triazol-1-yl]acetamide]	49	4	2500	≥ 10000	22
COc1cc(OCCN(C)C)cc2ncnc(Nc3ccc(NC(=O)Cn4cc(C(C)C)nn4)cc3)c12 [Example 17, N-[4-({7-[2-(Dimethylamino)ethoxy]-5-methoxyquinazolin-4-yl}amino)phenyl]-2-[4-(propan-2-yl)-1H-1,2,3-triazol-1-yl]acetamide]	627	20	≥ 10000	≥ 10000	88
COc1cc(OC2CCOCC2)cc2ncnc(Nc3ccc(NC(=O)Cn4cc(C(C)C)nn4)cc3)c12 [Example 10, N-(4-{[5-Methoxy-7-(tetrahydro-2H-pyran-4-yloxy)quinazolin-4-yl]amino}phenyl)-2-[4-(propan-2-yl)-1H-1,2,3-triazol-1-yl]acetamide]	640	7	9480	≥ 10000	65
COCCOc1cc(OC)c2c(Nc3ccc(NC(=O)Cn4cc(C(C)C)nn4)cc3)ncnc2c1 [Example 20, N-(4-{[5-Methoxy-7-(2-methoxyethoxy)quinazolin-4-yl]amino}phenyl)-2-[4-(propan-2-yl)-1H-1,2,3-triazol-1-yl]acetamide]	53	8	3390	9960	30
CCOc1cc(OC2CCOCC2)cc2ncnc(Nc3ccc(NC(=O)Cn4cc(C(C)C)nn4)cc3)c12 [Example 5, N-(4-((5-Ethoxy-7-((tetrahydro-2H-pyran-4-yl)oxy)quinazolin-4-yl)amino)phenyl)-2-(4-isopropyl-1H-1,2,3-triazol-1-yl)acetamide]	591	41	6180	1870	138
CCOc1cc(OC)c2c(Nc3ccc(NC(=O)Cn4cc(C(C)C)nn4)cc3)ncnc2c1 [Example 18, N-{4-[(7-Ethoxy-5-methoxyquinazolin-4-yl)amino]phenyl}-2-[4-(propan-2-yl)-1H-1,2,3-triazol-1-yl]acetamide]	66	3	6010	≥ 10000	21
CCOc1cc(OC)cc2ncnc(Nc3ccc(NC(=O)Cn4cc(C(C)C)nn4)cc3)c12 [Example 7, N-(4-((5-Ethoxy-7-methoxyquinazolin-4-yl)amino)phenyl)-2-(4-isopropyl-1H-1,2,3-triazol-1-yl)acetamide]	73	7	3190	≥ 10000	79
CCOc1cc(OC2COC2)cc2ncnc(Nc3ccc(NC(=O)Cn4cc(C(C)C)nn4)cc3)c12 [Example 9, N-(4-((5-Ethoxy-7-(oxetan-3-yloxy)quinazolin-4-yl)amino)phenyl)-2-(4-isopropyl-1H-1,2,3-triazol-1-yl)acetamide]	127	12	2330	1710	105
CCOc1cc(OCCOC)cc2ncnc(Nc3ccc(NC(=O)Cn4cc(C(C)C)nn4)cc3)c12 [Example 8, N-(4-((5-Ethoxy-7-(2-methoxyethoxy)quinazolin-4-yl)amino)phenyl)-2-(4-isopropyl-1H-1,2,3-triazol-1-yl)acetamide]	32	15	2150	2550	44
COc1cc(F)c2c(Nc3ccc(NC(=O)Cn4cc(C(C)C)nn4)cc3)ncnc2c1 [Example 21, N-{4-[(5-Fluoro-7-methoxyquinazolin-4-yl)amino]phenyl}-2-[4-(propan-2-yl)-1H-1,2,3-triazol-1-yl]acetamide]	68	2	≥ 10000	≥ 10000	25
COc1cc(OC2COC2)cc2ncnc(Nc3ccc(NC(=O)Cn4cc(C(C)C)nn4)cc3)c12 [Example 16, N-(4-{[5-Methoxy-7-(oxetan-3-yloxy)quinazolin-4-yl]amino}phenyl)-2-[4-(propan-2-yl)-1H-1,2,3-triazol-1-yl]acetamide]	502	12	9360	≥ 10000	90
CCOc1cc(OCC)c2c(Nc3ccc(NC(=O)Cn4cc(C(C)C)nn4)cc3)ncnc2c1 [Example 19, N-{4-[(5,7-Diethoxyquinazolin-4-yl)amino]phenyl}-2-[4-(propan-2-yl)-1H-1,2,3-triazol-1-yl]acetamide]	34	7	≥ 10000	≥ 10000	56
COc1cc2ncnc(Nc3ccc(NC(=O)Cn4cc(C(C)C)nn4)cc3)c2c(OC)c1OC [Example 11, 2-[4-(Propan-2-yl)-1H-1,2,3-triazol-1-yl]-N-{4-[(5,6,7-trimethoxyquinazolin-4-yl)amino]phenyl}acetamide]	36	4	2480	≥ 10000	27
COc1cc(OC(C)C)cc2ncnc(Nc3ccc(NC(=O)Cn4cc(C(C)C)nn4)cc3)c12 [Example 15, N-(4-{[5-Methoxy-7-(propan-2-yloxy)quinazolin-4-yl]amino}phenyl)-2-[4-(propan-2-yl)-1H-1,2,3-triazol-1-yl]acetamide]	254	11	4180	≥ 10000	35
COc1cc(OC)c2c(Nc3ccc(NC(=O)Cn4cc(C(C)C)nn4)cc3F)ncnc2c1 [Example 1, N-(4-[(5,7-dimethoxyquinazolin-4-yl)amino]-3-fluorophenyl)-2-[4-(propan-2-yl)-1H-1,2,3-triazol-1-yl]acetamide]	162	7	≥ 10000	≥ 10000	141
CCOc1cc(OCCN(C)C)cc2ncnc(Nc3ccc(NC(=O)Cn4cc(C(C)C)nn4)cc3)c12 [Example 6, N-(4-((7-(2-(Dimethylamino)ethoxy)-5-ethoxyquinazolin-4-yl)amino)phenyl)-2-(4-isopropyl-1H-1,2,3-triazol-1-yl)acetamide]	91	13	2660	2050	63
COc1cc(OC)c2c(Nc3ccc(NC(=O)Cn4cc(C(C)C)nn4)cc3)ncnc2c1 [Example 22, N-{4-[(5,7-Dimethoxyquinazolin-4-yl)amino]phenyl}-2-[4-(propan-2-yl)-1H-1,2,3-triazol-1-yl]acetamide]	106	3	5350	≥ 10000	48
COCCOc1cc(F)c2c(Nc3ccc(NC(=O)Cn4cc(C(C)C)nn4)cc3)ncnc2c1 [Example 12, N-(4-{[5-Fluoro-7-(2-methoxyethoxy)quinazolin-4-yl]amino}phenyl)-2-[4-(propan-2-yl)-1H-1,2,3-triazol-1-yl]acetamide]	15	2	1300	≥ 10000	7
